# Source: patent US6525001B1, “Substituted pyrimidine and pyridine herbicides” (Mid-American Commercialization Corporation, priority 1997, dated 2003)
# Columns and labels:
# Type in all cases: in vivo
# kochia (Kochia scoparia) = assay: Test E pre-/postemergence/post directed; design: key: 0 is no effect; 100 is complete control; details: PREEMERGENCE
# Summary of the method: (§1)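 Greenhouse pot-grown plants; compound in non-phytotoxic solvent with surfactant applied preemergence to soil within one day of planting, postemergence at two to four leaf stage (three to twenty cm), or post-directed to plant base and soil. Visual injury rated 13 to 21 days after application, 0 (none) to 100 (complete control).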
# [1] = system: Russian thistle (Salsola kali); assay: Test E pre-/postemergence/post directed; details: PREEMERGENCE
# Summary of the method: as §1
# [2] = system: sugarcane (Saccharum officinarum); assay: Test E pre-/postemergence/post directed; design: key: 0 is no injury; 100 is complete control
# Summary of the method: as §1
# [3] = system: downy brome (Bromus tectorum); assay: Test D; design: key: 0 is no effect; 100 is complete control; details: PREEMERGENCE
# [4] = system: Italian ryegrass (Lolium multiflorum); assay: Test D; design: key: 0 is no effect; 10 is complete control; details: PREEMERGENCE, Rate 62 g/ha
# [5] = system: Russian thistle (Salsola kali); assay: Test D; details: POSTEMERGENCE
# Summary of the method: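 Surfactant-containing, non-phytotoxic solvent formulations; postemergence application is onto 1- to 4-leaf-stage plants in a 60:40 sandy loam/potting mix. Greenhouse hold of approximately 21–28 days precedes visual scoring on a 0–100 control scale.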
# [6] = system: wild buckwheat (Polygonum convolvulus); assay: Test D; design: key: 0 is no effect; 10 is complete control; details: PREEMERGENCE, Rate 62 g/ha
# [7] = system: field violet (Viola arvensis); assay: Test D; design: key: 0 is no effect; 100 is complete control; details: POSTEMERGENCE
# Description: Compounds evaluated in this test were formulated in a non-phytotoxic solvent mixture which included a surfactant and applied to plants that were in the 1- to 4-leaf stage (postemergence application). A mixture of sandy loam soil and greenhouse potting mix in a 60:40 ratio was used for the postemergence test.
# Plantings of these crops and weed species were adjusted to produce plants of appropriate size for the postemergence test. All plant species were grown using normal greenhouse practices. Crop and weed species include alfalfa (Medicago sativa), annual bluegrass (Poa annua), blackgrass (Alopecurus myosuroides), black nightshade (Solanum nigra), chickweed (Stellaria media), common poppy (Papaver rhoeas), deadnettle (Lamium amplexicaule), downy brome (Bromus tectorum), field violet (Viola arvensis), galium 2 (Galium aparine), green foxtail (Setaria viridis), Italian ryegrass (Lolium multiflorum), jointed goatgrass (Aegilops cylindrica), kochia (Kochia scoparia), lambsquarters (Chenopodium album), lentil (Lens culinaris), littleseed canarygrass (Phalaris minor), pea (Pisum sativum), potato (Solanum tuberosum), rape (Brassica napus), redroot pigweed (Amaranthus retroflexus), Russian thistle (Salsola kali), scentless chamomile (Matricaria inodora), sorghum (Sorghum vulgare), spring barley (Hordeum vulgare), sugar beet (Beta vulgaris), sunflower (Helianthus annuus), ivyleaf speedwell (Veronica hederaefolia), spring wheat (Triticum aestivum), winter wheat (Triticum aestivum), wild buckwheat (Polygonum convolvulus), wild mustard (Sinapis arvensis), wild oat (Avena fatua), windgrass (Apera spica-venti) and winter barley (Hordeum vulgare).
# Treated plants and untreated controls were maintained in a greenhouse for approximately 21 to 28 days, after which all treated plants were compared to untreated controls and visually evaluated. Plant response ratings, summarized in Table D, are based upon a 0 to 100 scale where 0 is no effect and 100 is complete control. A dash response (−) means no test result.
# [8] = system: itchgrass (Rottboellia exaltata); assay: Test E pre-/postemergence/post directed; design: key: 0 is no injury; 100 is complete control; details: PREEMERGENCE
# Summary of the method: as §1
# [9] = system: johnson grass (Sorghum halepense); assay: Test E pre-/postemergence/post directed; design: key: 0 is no injury; 100 is complete control; details: PREEMERGENCE
# Summary of the method: as §1
# [10] = system: wild buckwheat (Polygonum convolvulus); assay: Test D; design: key: 0 is no effect; 100 is complete control; details: PREEMERGENCE, Rate 125 g/ha
# [11] = system: surinam grass (Brachiaria decumbens); assay: Test E pre-/postemergence/post directed; design: key: 0 is no injury; 100 is complete control; details: PREEMERGENCE
# Summary of the method: as §1
# [12] = system: itchgrass (Rottboellia exaltata); assay: Test E pre-/postemergence/post directed; design: key: 0 is no effect; 100 is complete control; details: PREEMERGENCE
# Summary of the method: as §1
# [13] = system: Spanishneedles (Bidens bipinnata); assay: Test E pre-/postemergence/post directed; design: key: 0 is no injury; 100 is complete control; details: PREEMERGENCE
# Summary of the method: as §1
# [14] = system: barnyardgrass (Echinochloa crus-galli); assay: Test E pre-/postemergence/post directed; design: key: 0 is no effect; 100 is complete control; details: PREEMERGENCE
# Summary of the method: as §1
structure (smiles),measurement,setting,value
Cc1cnc(-c2ccc(C(F)(F)F)cc2)nc1Cc1cccc(OC(F)(F)F)c1 [Compound 15],"Plant response rating, Kochia",kochia (Kochia scoparia); Rate 32 g/ha,60
same,"Plant response rating, Kochia",kochia (Kochia scoparia); Rate 64 g/ha,75
same,"Plant response rating, Kochia",kochia (Kochia scoparia); Rate 125 g/ha,95
same,"Plant response rating, Kochia",kochia (Kochia scoparia); Rate 250 g/ha,100
same,"Plant response rating, Russian thistle",[1]; Rate 32 g/ha,70
same,"Plant response rating, Russian thistle",[1]; Rate 64 g/ha,90
same,"Plant response rating, Russian thistle",[1]; Rate 125 g/ha,95
same,"Plant response rating, Russian thistle",[1]; Rate 250 g/ha,95
same,"Plant response rating, Sugarcane","[2]; PREEMERGENCE, Rate 32 g/ha",0
same,"Plant response rating, Sugarcane","[2]; PREEMERGENCE, Rate 64 g/ha",0
same,"Plant response rating, Sugarcane","[2]; PREEMERGENCE, Rate 125 g/ha",10
same,"Plant response rating, Sugarcane","[2]; PREEMERGENCE, Rate 250 g/ha",10
CCc1cnc(-c2ccc(C(F)(F)F)cc2)nc1Cc1cccc(C(F)(F)F)c1 [Compound 22],"Plant response rating, Downy brome",[3]; Rate 125 g/ha,100
same,"Plant response rating, I. Ryegrass",[4],0
same,"Plant response rating, Russian thistle",[5]; Rate 62 g/ha,80
same,"Plant response rating, Russian thistle",[5]; Rate 125 g/ha,80
same,"Plant response rating, Wild buckwheat",[6],0
same,"Plant response rating, Field violet",[7]; Rate 62 g/ha,100
same,"Plant response rating, Field violet",[7]; Rate 125 g/ha,100
Cc1cnc(-n2cnc(C(F)(F)F)c2)nc1Cc1cccc(C(F)(F)F)c1 [Compound 44],"Plant response rating, Itchgrass",[8]; Rate 32 g/ha,0
same,"Plant response rating, Itchgrass",[8]; Rate 64 g/ha,0
same,"Plant response rating, Johnsongrass",[9]; Rate 64 g/ha,0
"Cc1cnc(-c2ccc(C(F)(F)F)cc2)nc1Cc1cccc(C(F)(F)F)c1 [Example 1, 5-methyl-2-[4-(trifluoromethyl)phenyl]-4-[[3-(trifluoromethyl)phenyl]methyl]pyrimidine]","Plant response rating, Downy brome",[3]; Rate 250 g/ha,100
same,"Plant response rating, Russian thistle",[5]; Rate 16 g/ha,40
same,"Plant response rating, Russian thistle",[5]; Rate 62 g/ha,60
same,"Plant response rating, Russian thistle",[5]; Rate 125 g/ha,50
same,"Plant response rating, Kochia",kochia (Kochia scoparia); Rate 32 g/ha,95
same,"Plant response rating, Kochia",kochia (Kochia scoparia); Rate 64 g/ha,100
same,"Plant response rating, Kochia",kochia (Kochia scoparia); Rate 125 g/ha,100
same,"Plant response rating, Field violet",[7]; Rate 16 g/ha,20
same,"Plant response rating, Field violet",[7]; Rate 31 g/ha,100
same,"Plant response rating, Field violet",[7]; Rate 62 g/ha,100
same,"Plant response rating, Field violet",[7]; Rate 125 g/ha,80
Cc1cnc(-n2ccc(C(F)(F)F)n2)nc1Cn1ccc(C(F)(F)F)n1 [Compound 52],"Plant response rating, Wild buckwheat",[10],100
CCc1cnc(-n2ccc(C(F)(F)F)n2)nc1Cc1cccc(C(F)(F)F)c1 [Compound 46],"Plant response rating, Surinam grass",[11]; Rate 32 g/ha,0
same,"Plant response rating, Surinam grass",[11]; Rate 64 g/ha,0
same,"Plant response rating, Itchgrass",[8]; Rate 32 g/ha,0
same,"Plant response rating, Itchgrass",[8]; Rate 64 g/ha,0
same,"Plant response rating, Johnsongrass",[9]; Rate 32 g/ha,0
same,"Plant response rating, Johnsongrass",[9]; Rate 64 g/ha,0
same,"Plant response rating, Johnsongrass",[9]; Rate 125 g/ha,0
same,"Plant response rating, Johnsongrass",[9]; Rate 250 g/ha,0
Cc1cnc(-c2ccc(C(F)(F)F)cc2)nc1Cn1ccc(C(F)(F)F)n1 [compound 9],"Plant response rating, Itchgrass",[12]; Rate 32 g/ha,100
same,"Plant response rating, Itchgrass",[12]; Rate 125 g/ha,100
same,"Plant response rating, Itchgrass",[12]; Rate 250 g/ha,100
same,"Plant response rating, Surinam grass",[11]; Rate 32 g/ha,0
same,"Plant response rating, Spanishneedles",[13]; Rate 32 g/ha,0
"Cc1cnc(-n2ccc(C(F)(F)F)n2)nc1Cc1cccc(C(F)(F)F)c1 [Example 2, 5-methyl-4-[[3-(trifluoromethyl)phenyl]methyl]-2-[3-(trifluoromethyl)-1H-pyrazol-1-yl]pyrimidine]","Plant response rating, Itchgrass",[12]; Rate 500 g/ha,100
same,"Plant response rating, Barnyardgrass",[14]; Rate 125 g/ha,100
same,"Plant response rating, Barnyardgrass",[14]; Rate 250 g/ha,100
same,"Plant response rating, Sugarcane","[2]; POSTEMERGENCE, Rate 32 g/ha",20
same,"Plant response rating, Sugarcane","[2]; POSTEMERGENCE, Rate 64 g/ha",20
same,"Plant response rating, Sugarcane","[2]; POSTEMERGENCE, Rate 125 g/ha",20
same,"Plant response rating, Sugarcane","[2]; POSTEMERGENCE, Rate 250 g/ha",25
same,"Plant response rating, Sugarcane","[2]; POSTEMERGENCE, Rate 500 g/ha",25
same,"Plant response rating, Sugarcane","[2]; PREEMERGENCE, Rate 64 g/ha",0
Cc1cnc(-n2cnc(C(F)(F)F)n2)nc1C(=O)c1cccc(C(F)(F)F)c1 [Compound 67],"Plant response rating, Spanishneedles",[13]; Rate 32 g/ha,0
same,"Plant response rating, Spanishneedles",[13]; Rate 64 g/ha,0
